{"source": "patent US9464084B2", "about": "“P2X7 modulators” (Janssen Pharmaceutica NV, priority 2013, dated 2016)", "data": [{"molecular_target": "P2X7 (Homo sapiens (Human), UniProt Q99572)", "sequence (Q99572 whole entry)": "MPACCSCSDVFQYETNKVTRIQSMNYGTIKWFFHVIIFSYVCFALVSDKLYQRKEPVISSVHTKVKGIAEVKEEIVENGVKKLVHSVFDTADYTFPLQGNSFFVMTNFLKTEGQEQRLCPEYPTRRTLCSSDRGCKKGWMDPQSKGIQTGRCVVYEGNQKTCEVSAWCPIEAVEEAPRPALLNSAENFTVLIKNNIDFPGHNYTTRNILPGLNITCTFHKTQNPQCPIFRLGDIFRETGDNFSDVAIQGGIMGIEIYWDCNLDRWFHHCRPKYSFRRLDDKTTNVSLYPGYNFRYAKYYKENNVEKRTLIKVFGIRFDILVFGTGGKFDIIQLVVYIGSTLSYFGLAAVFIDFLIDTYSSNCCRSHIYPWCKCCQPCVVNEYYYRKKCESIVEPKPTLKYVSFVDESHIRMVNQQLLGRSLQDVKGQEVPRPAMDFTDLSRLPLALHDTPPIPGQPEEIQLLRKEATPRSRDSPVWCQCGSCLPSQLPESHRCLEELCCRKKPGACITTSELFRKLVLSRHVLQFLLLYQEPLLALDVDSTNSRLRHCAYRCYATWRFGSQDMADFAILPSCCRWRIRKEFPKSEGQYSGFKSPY", "assay": "P2X7 antagonism in human PBMCs (LPS + Bz-ATP induced IL-1β release, ELISA);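 note: PBMCs from donor human blood, with a further 1.5 h incubation of the cells in the assay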", "type": "cell-based", "conditions": "compound 1 μM, LPS 30 ng/ml, Bz-ATP 0.5 mM", "units": {"PBMC 1 μM (% control)": "% control"}, "protocol": "Human blood was collected using a blood donor program. PBMCs were isolated from blood using a Ficoll density gradient technique. Briefly, blood was laid on Ficoll solution and centrifuged at RT for 20 minutes at 2000 rpm. The buffy layer (between red blood cells and plasma) was carefully collected by aspiration, washed with PBS and centrifuged again at 1500 rpm for 15 minutes. The resulting cell pellet was washed and plated on 96 well-plates for experiments. For the Mouse/Human Whole Blood experiments, 150 μl of either mouse or human blood was platted on 96 well-plates. Lipopolysaccharide (LPS) (30 ng/ml) was added to each well and incubated for 1 hour. Test compounds were then added and incubated for 30 minutes. The P2X7 agonist, 2′(3′)-O-(4-benzoylbenzoyl) adenosine 5′ triphosphate (Bz-ATP) was then added at a final concentration of 0.5 mM (PBMC) or 1 mM (blood). Cells were incubated for an additional 1.5 hours. At that point, supernatant was collected and stored for IL-1β assay using manufacturer's protocol for enzyme-linked immunosorbent assay (ELISA). Data was expressed as percent control, where control is defined as the difference in IL-1β release in LPS+Bz-ATP samples and LPS only samples. Data was plotted as response (% control) versus concentration to generate IC50 values.", "values": [{"molecule": "O=C(c1cccnc1C(F)(F)F)N1CCc2c(-c3ccccc3)n[nH]c2C1", "note": "[Example 322, (3-phenyl-4,5-dihydro-1H-pyrazolo[3,4-c]pyridin-6(7H)-yl)(2-(trifluoromethyl)pyridin-3-yl)methanone]", "PBMC 1 μM (% control)": 100.4}, {"molecule": "O=C(c1ccc(F)cc1Cl)N1CCc2c(-c3ccccc3)n[nH]c2C1", "note": "[Example 323, (2-chloro-4-fluorophenyl)(3-phenyl-4,5-dihydro-1H-pyrazolo[3,4-c]pyridin-6(7H)-yl)methanone]", "PBMC 1 μM (% control)": 102.4}, {"molecule": "O=C(c1c(Cl)cccc1Cl)N1CCc2c(-c3ccccc3)n[nH]c2C1", "note": "[Example 324, (2,6-dichlorophenyl)(3-phenyl-4,5-dihydro-1H-pyrazolo[3,4-c]pyridin-6(7H)-yl)methanone]", "PBMC 1 μM (% control)": 100.4}, {"molecule": "O=C(c1c(F)cccc1Cl)N1CCc2c(-c3ccccc3)n[nH]c2C1", "note": "[Example 325, (2-chloro-6-fluorophenyl)(3-phenyl-4,5-dihydro-1H-pyrazolo[3,4-c]pyridin-6(7H)-yl)methanone]", "PBMC 1 μM (% control)": 99.7}]}, {"molecular_target": "P2X7 (Homo sapiens (Human), UniProt Q99572)", "assay": "P2X7 antagonism in human PBMCs (LPS + Bz-ATP induced IL-1β release, ELISA)", "type": "cell-based", "conditions": "compound 10 μM, LPS 30 ng/ml, Bz-ATP 0.5 mM", "units": {"PBMC 10 μM (% control)": "% control"}, "values": [{"molecule": "C[C@@H]1Cc2c(nnn2-c2ncc(F)cn2)CN1C(=O)c1cccc(C(F)(F)F)c1F", "note": "[Example 219, (6R)-1-(5-Fluoropyrimidin-2-yl)-5-{[2-fluoro-3-(trifluoromethyl)phenyl]carbonyl}-6-methyl-4,5,6,7-tetrahydro-1H-[1,2,3]triazolo[4,5-c]pyridine]", "PBMC 10 μM (% control)": 76.5}, {"molecule": "C[C@H]1Cc2c(nnn2-c2ncc(F)cn2)CN1C(=O)c1cccc(C(F)(F)F)c1F", "note": "[Example 220, (6S)-1-(5-Fluoropyrimidin-2-yl)-5-{[2-fluoro-3-(trifluoromethyl)phenyl]carbonyl}-6-methyl-4,5,6,7-tetrahydro-1H-[1,2,3]triazolo[4,5-c]pyridine]", "PBMC 10 μM (% control)": 15.1}, {"molecule": "Cc1cccc(-n2nnc3c2CCN(C(=O)c2cccc(Cl)c2Cl)C3C)n1", "note": "(stereo not drawn) [Example 233, (2,3-dichlorophenyl)(4-methyl-1-(6-methylpyridin-2-yl)-6,7-dihydro-1H-[1,2,3]triazolo[4,5-c]pyridin-5(4H)-yl)methanone]", "PBMC 10 μM (% control)": "−0.1"}, {"molecule": "Cc1ccnc(-n2nnc3c2CCN(C(=O)c2cccc(Cl)c2Cl)C3C)c1", "note": "(stereo not drawn) [Example 237, (2,3-dichlorophenyl)(4-methyl-1-(4-methylpyridin-2-yl)-6,7-dihydro-1H-[1,2,3]triazolo[4,5-c]pyridin-5(4H)-yl)methanone]", "PBMC 10 μM (% control)": "−5.1"}, {"molecule": "CC1Cc2c(nnn2-c2ccccc2)C(C)N1C(=O)c1cccc(C(F)(F)F)c1Cl", "note": "(stereo not drawn) [Example 240, (2-Chloro-3-(trifluoromethyl)phenyl)(4,6-dimethyl-1-phenyl-6,7-dihydro-1H-[1,2,3]triazolo[4,5-c]pyridin-5(4H)-yl)methanone]", "PBMC 10 μM (% control)": "−8.9"}, {"molecule": "CC1Cc2c(nnn2-c2ccc(F)cc2)C(C)N1C(=O)c1cccc(C(F)(F)F)c1Cl", "note": "(stereo not drawn) [Example 243, (2-Chloro-3-(trifluoromethyl)phenyl)(1-(4-fluorophenyl)-4,6-dimethyl-6,7-dihydro-1H-[1,2,3]triazolo[4,5-c]pyridin-5(4H)-yl)methanone]", "PBMC 10 μM (% control)": 1.0}, {"molecule": "O=C(c1ccc(Cl)cc1Cl)N1CCc2c(nnn2-c2ncccn2)C1", "note": "[Example 257, (2,4-dichlorophenyl)(1-(pyrimidin-2-yl)-6,7-dihydro-1H-[1,2,3]triazolo[4,5-c]pyridin-5(4H)-yl)methanone]", "PBMC 10 μM (% control)": 7.1}, {"molecule": "Cc1cccnc1-n1nnc2c1CCN(C(=O)c1cccc(C(F)(F)F)c1Cl)C2C", "note": "(stereo not drawn) [Example 259, (2-Chloro-3-(trifluoromethyl)phenyl)(4-methyl-1-(3-methylpyridin-2-yl)-6,7-dihydro-1H-[1,2,3]triazolo[4,5-c]pyridin-5(4H)-yl)methanone]", "PBMC 10 μM (% control)": "−3.5"}, {"molecule": "CC1c2ncn(-c3ccc(F)cn3)c2CCN1C(=O)c1ccc(C(C)(C)C)cc1", "note": "(stereo not drawn) [Example 265, (4-(tert-butyl)phenyl)(1-(5-fluoropyridin-2-yl)-4-methyl-6,7-dihydro-1H-imidazo[4,5-c]pyridin-5(4H)-yl)methanone]", "PBMC 10 μM (% control)": 76.5}, {"molecule": "Cc1c(C(=O)N2CCc3c(nnn3-c3ncccn3)C2C)cccc1C(F)(F)F", "note": "(stereo not drawn) [Example 282, (4-methyl-1-(pyrimidin-2-yl)-6,7-dihydro-1H-[1,2,3]triazolo[4,5-c]pyridin-5(4H)-yl)(2-methyl-3-(trifluoromethyl)phenyl)methanone]", "PBMC 10 μM (% control)": "−5.5"}, {"molecule": "C[C@@H]1Cc2c(nnn2-c2ccc(F)cc2)[C@@H](C)N1C(=O)c1cccc(C(F)(F)F)c1Cl", "note": "[Example 284, (2-chloro-3-(trifluoromethyl)phenyl)((4R,6R)-1-(4-fluorophenyl)-4,6-dimethyl-6,7-dihydro-1H-[1,2,3]triazolo[4,5-c]pyridin-5(4H)-yl)methanone]", "PBMC 10 μM (% control)": 18.2}, {"molecule": "C[C@H]1Cc2c(nnn2-c2ccc(F)cc2)[C@H](C)N1C(=O)c1cccc(C(F)(F)F)c1Cl", "note": "[Example 285, (2-chloro-3-(trifluoromethyl)phenyl)((4S,6S)-1-(4-fluorophenyl)-4,6-dimethyl-6,7-dihydro-1H-[1,2,3]triazolo[4,5-c]pyridin-5(4H)-yl)methanone]", "PBMC 10 μM (% control)": "−2.6"}, {"molecule": "C[C@@H]1Cc2c(nnn2-c2ccc(F)cc2)[C@H](C)N1C(=O)c1cccc(C(F)(F)F)c1Cl", "note": "[Example 286, (2-chloro-3-(trifluoromethyl)phenyl)((4S,6R)-1-(4-fluorophenyl)-4,6-dimethyl-6,7-dihydro-1H-[1,2,3]triazolo[4,5-c]pyridin-5(4H)-yl)methanone]", "PBMC 10 μM (% control)": 5.8}, {"molecule": "C[C@@H]1c2nnn(-c3ccc(F)cc3)c2C[C@H](C)N1C(=O)c1cccc(C(F)(F)F)c1Cl", "note": "[Example 287, (2-chloro-3-(trifluoromethyl)phenyl)((4R,6S)-1-(4-fluorophenyl)-4,6-dimethyl-6,7-dihydro-1H-[1,2,3]triazolo[4,5-c]pyridin-5(4H)-yl)methanone]", "PBMC 10 μM (% control)": "−4.1"}, {"molecule": "C[C@H]1Cc2c(nnn2-c2ccccc2)CN1C(=O)c1cccc(C(F)(F)F)c1Cl", "note": "[Example 288, (S)-(2-chloro-3-(trifluoromethyl)phenyl)(6-methyl-1-phenyl-6,7-dihydro-1H-[1,2,3]triazolo[4,5-c]pyridin-5(4H)-yl)methanone]", "PBMC 10 μM (% control)": 4.4}, {"molecule": "CC1Cc2c(nnn2-c2ccccc2)CN1C(=O)c1cccc(C(F)(F)F)c1Cl", "note": "(stereo not drawn) [Example 290, (2-chloro-3-(trifluoromethyl)phenyl)(6-methyl-1-phenyl-6,7-dihydro-1H-[1,2,3]triazolo[4,5-c]pyridin-5(4H)-yl)methanone]", "PBMC 10 μM (% control)": "−11.2"}, {"molecule": "C[C@@H]1Cc2c(nnn2-c2ccn[nH]2)[C@@H](C)N1C(=O)c1cccc(C(F)(F)F)c1Cl", "note": "[Example 296, (2-chloro-3-(trifluoromethyl)phenyl)((4R,6R)-4,6-dimethyl-1-(1H-pyrazol-5-yl)-6,7-dihydro-1H-[1,2,3]triazolo[4,5-c]pyridin-5(4H)-yl)methanone]", "PBMC 10 μM (% control)": 3.6}, {"molecule": "C[C@@H]1Cc2c(nnn2-c2ccn[nH]2)[C@H](C)N1C(=O)c1cccc(C(F)(F)F)c1Cl", "note": "[Example 297, (2-chloro-3-(trifluoromethyl)phenyl)((4S,6R)-4,6-dimethyl-1-(1H-pyrazol-5-yl)-6,7-dihydro-1H-[1,2,3]triazolo[4,5-c]pyridin-5(4H)-yl)methanone]", "PBMC 10 μM (% control)": 2.6}, {"molecule": "Cc1ccnc(-n2nnc3c2CCN(C(=O)c2cccc(C(F)(F)F)c2Cl)C3C)c1", "note": "(stereo not drawn) [Example 299, (2-chloro-3-(trifluoromethyl)phenyl)(4-methyl-1-(4-methylpyridin-2-yl)-6,7-dihydro-1H-[1,2,3]triazolo[4,5-c]pyridin-5(4H)-yl)methanone]", "PBMC 10 μM (% control)": 1.5}, {"molecule": "C[C@H]1Cc2c(nnn2-c2ncc(F)cn2)CN1C(=O)c1cccc(C(F)(F)F)c1", "note": "[Example 304, (S)-(1-(5-fluoropyrimidin-2-yl)-6-methyl-6,7-dihydro-1H-[1,2,3]triazolo[4,5-c]pyridin-5(4H)-yl)(3-(trifluoromethyl)phenyl)methanone]", "PBMC 10 μM (% control)": 3.2}, {"molecule": "C[C@@H]1Cc2c(nnn2-c2ccn[nH]2)[C@H](C)N1C(=O)c1cccc(C(F)(F)F)c1Cl", "note": "[Example 309, (2-chloro-3-(trifluoromethyl)phenyl)((4S,6R)-4,6-dimethyl-1-(1H-pyrazol-5-yl)-6,7-dihydro-1H-[1,2,3]triazolo[4,5-c]pyridin-5(4H)-yl)methanone]", "PBMC 10 μM (% control)": 1.4}, {"molecule": "C[C@@H]1c2nnn(-c3ccn[nH]3)c2C[C@H](C)N1C(=O)c1cccc(C(F)(F)F)c1Cl", "note": "[Example 310, (2-chloro-3-(trifluoromethyl)phenyl)((4R,6S)-4,6-dimethyl-1-(1H-pyrazol-5-yl)-6,7-dihydro-1H-[1,2,3]triazolo[4,5-c]pyridin-5(4H)-yl)methanone]", "PBMC 10 μM (% control)": 12.2}, {"molecule": "CC1Cc2c(nnn2-c2ncc(F)cn2)CN1C(=O)c1cccc(C(F)(F)F)c1F", "note": "(stereo not drawn) [Example 311, (2-fluoro-3-(trifluoromethyl)phenyl)(1-(5-fluoropyrimidin-2-yl)-6-methyl-6,7-dihydro-1H-[1,2,3]triazolo[4,5-c]pyridin-5(4H)-yl)methanone]", "PBMC 10 μM (% control)": 63.6}, {"molecule": "O=C(c1cccc(C(F)(F)F)c1Cl)N1CCc2c(ncn2-c2ccc(F)cn2)C1", "note": "[Example 315, (2-chloro-3-(trifluoromethyl)phenyl)(1-(5-fluoropyridin-2-yl)-6,7-dihydro-1H-imidazo[4,5-c]pyridin-5(4H)-yl)methanone]", "PBMC 10 μM (% control)": 8.8}, {"molecule": "C[C@H]1Cc2c(nnn2-c2ccn[nH]2)[C@H](C)N1C(=O)c1cccc(C(F)(F)F)c1Cl", "note": "[Example 319, (2-chloro-3-(trifluoromethyl)phenyl)((4S,6S)-4,6-dimethyl-1-(1H-pyrazol-5-yl)-6,7-dihydro-1H-[1,2,3]triazolo[4,5-c]pyridin-5(4H)-yl)methanone]", "PBMC 10 μM (% control)": "−6.8"}, {"molecule": "C[C@@H]1Cc2c(nnn2-c2ccn[nH]2)[C@@H](C)N1C(=O)c1cccc(C(F)(F)F)c1Cl", "note": "[Example 320, (2-chloro-3-(trifluoromethyl)phenyl)((4R,6R)-4,6-dimethyl-1-(1H-pyrazol-5-yl)-6,7-dihydro-1H-[1,2,3]triazolo[4,5-c]pyridin-5(4H)-yl)methanone]", "PBMC 10 μM (% control)": "−19.7"}]}]}
